The test system of test [1] is HEp-2. Kind of test: Effect on vacuole response in the HEp-2 cells. In kind it is functional, Homo sapiens.
Test [2] has as its system Suncus murinus. Kind of test: Effect on latency at dose 16 ug/Kg administered ip. Type of test: functional.
Test [3] concerns Suncus murinus. Kind of test: Effect on latency at dose 16 ug/Kg administered po. Type of test: functional.
The test system of test [4] is Suncus murinus. Kind of test: Effect on latency at dose 32 ug/Kg administered ip. In kind it is functional.
Test [5] has as its system Suncus murinus. Kind of test: Effect on latency at dose 32 ug/Kg administered po. Type of test: functional.
Test [6] concerns Suncus murinus. Kind of test: Effect on latency at dose 4 ug/Kg administered ip. In kind it is functional.
Test [7] relates to Suncus murinus. Kind of test: Effect on latency at dose 8 ug/Kg administered ip. In kind it is functional.
In test [8] the test system is Suncus murinus. Kind of test: Effect on number of suncus vomited at dose 16 ug/Kg administered ip (out of 5). In kind it is functional.
Test [9] concerns Suncus murinus. Kind of test: Effect on number of suncus vomited at dose 2 ug/Kg administered ip (out of 3). Type of test: functional.
Test [10] concerns Suncus murinus. Kind of test: Effect on number of suncus vomited at dose 32 ug/Kg administered ip (out of 5). In kind it is functional.
Test [11] relates to Suncus murinus. Kind of test: Effect on number of suncus vomited at dose 4 ug/Kg administered ip (out of 5). Type of test: functional.
Test [12] has as its system Suncus murinus. Kind of test: Effect on number of suncus vomited at dose 4 ug/Kg administered po (out of 5). In kind it is functional.
Test [13] has as its system Suncus murinus. Kind of test: Effect on number of suncus vomited at dose 8 ug/Kg administered ip (out of 5). Type of test: functional.
In test [14] the test system is Suncus murinus. Kind of test: Effect on number of suncus vomited at dose 8 ug/Kg administered po (out of 5). In kind it is functional.
Test [15] deals with Suncus murinus. Kind of test: Effect on number of vomiting episodes at dose 16 ug/Kg administered ip. In kind it is functional.
For test [16], the system named is Suncus murinus. Kind of test: Effect on number of vomiting episodes at dose 16 ug/Kg administered po. Type of test: functional.
Test [17] concerns Suncus murinus. Kind of test: Effect on number of vomiting episodes at dose 32 ug/Kg administered ip. Type of test: functional.
In test [18] the test system is Suncus murinus. Kind of test: Effect on number of vomiting episodes at dose 32 ug/Kg administered po. Type of test: functional.
The subject of test [19] is Suncus murinus. Kind of test: Effect on number of vomiting episodes at dose 4 ug/Kg administered ip. In kind it is functional.
Test [20] deals with Suncus murinus. Kind of test: Effect on number of vomiting episodes at dose 8 ug/Kg administered ip. In kind it is functional.
For test [21], the system named is Suncus murinus. Kind of test: Effect on number of vomiting episodes at dose 8 ug/Kg administered po. Type of test: functional.
Test [22] deals with Suncus murinus. Kind of test: Effect on latency at dose 8 ug/Kg administered po. In kind it is functional.
Test [23] relates to Suncus murinus. Kind of test: Effect on number of suncus vomited at dose 16 ug/Kg administered po (out of 5). Type of test: functional.
Test [24] has as its system Suncus murinus. Kind of test: Effect on number of suncus vomited at dose 32 ug/Kg administered po (out of 5). Type of test: functional.
For test [25], the system named is Suncus murinus. Kind of test: Effect on number of suncus vomited at dose 8 ug/Kg administered ip. Type of test: functional.

Bounds are passed on as bounds.

For `CC(=O)OC[C@@H](C)NC(=O)[C@@H](CC(C)C)OC(=O)[C@@H](NC(=O)[C@@H](OC(=O)[C@@H](C)NC(=O)[C@@H](CC(C)C)OC(=O)[C@@H](NC(=O)[C@@H](OC(=O)[C@@H](C)NC(=O)[C@@H](CC(C)C)OC(=O)[C@@H](NC(=O)[C@@H](OC(C)=O)C(C)C)C(C)C)C(C)C)C(C)C)C(C)C)C(C)C`, in [1], the Vacuole response is over 20000 ng/mL.
The compound `CC(C)C[C@@H](OC(=O)[C@@H](NC(=O)[C@@H](O)C(C)C)C(C)C)C(=O)N[C@H](C)C(=O)O[C@H](C(=O)N[C@H](C(=O)O[C@H](CC(C)C)C(=O)N[C@H](C)C(=O)O[C@H](C(=O)N[C@H](C(=O)O[C@H](CC(C)C)C(=O)N[C@H](C)C(=O)O)C(C)C)C(C)C)C(C)C)C(C)C` had a Vacuole response in [1] of 12000 ng/mL.
In turn, `CC(C)C[C@@H]1OC(=O)[C@H](C(C)C)NC(=O)[C@@H](C(C)C)OC(=O)[C@@H](C)NC(=O)[C@H](CC(C)C)OC(=O)[C@H](C(C)C)NC(=O)[C@@H](C(C)C)OC(=O)[C@@H](C)NC(=O)[C@H](CC(C)C)OC(=O)[C@H](C(C)C)NC(=O)[C@@H](C(C)C)OC(=O)[C@@H](C)NC1=O` (stereo in doubt; form 1) registered a Vacuole response in [1] of 5 ng/mL. The Latency in test [2] is given as 5.3 min; in test [3] it was 6.3 min; in [4], 5.9 min; in [5] it was 4.4 min; in [6], 15 min; in test [7] it was 5.7 min. Moreover, the “No. of suncus vomited” value is recorded as 3 in test [8]; 0 in test [9]; 5 in test [10]; 1 in test [11]; 0 in test [12]; 2 in test [13]. In addition, the “No. of suncus vomited” value in test [14] is on record as 1. The “No. of vomiting episodes” value is listed as 7.3 in [15]; 5.3 in [16]; 8.4 in [17]; 7 in [18]; 4 in test [19]; 6.8 in test [20]. The “No. of vomiting episodes” value in test [21] is 3.
Consider `CC(C)C[C@@H]1OC(=O)[C@H](C(C)C)NC(=O)[C@@H](C(C)C)OC(=O)[C@@H](C)NC(=O)[C@H](CC(C)C)OC(=O)[C@H](C(C)C)NC(=O)[C@@H](C(C)C)OC(=O)[C@@H](C)NC(=O)[C@H](CC(C)C)OC(=O)[C@H](C(C)C)NC(=O)[C@@H](C(C)C)OC(=O)[C@@H](C)NC1=O` (stereo in doubt; form 2), for which, in [1], the Vacuole response was 3 ng/mL. In addition, the Latency is given as 6 min in test [2]; 8.3 min in [3]; 8.2 min in test [5]; 7 min in [7]; 6 min in test [22]. The “No. of suncus vomited” value was found to be 5 in [8]; 3 in test [23]; 5 in [24]; 0 in [11]; 0 in test [14]; 1 in test [25]. Also, the “No. of vomiting episodes” value in test [15] came out at 10.3; in test [16], 6.3; in test [18], 7.6; in [20], 5.

(Values after ChEMBL document CHEMBL1128088, “Synthesis and activity of cereulide, a cyclic dodecadepsipeptide ionophore as emetic toxin from Bacillus cereus” (1995).)
